Data set [1] is described as follows: Exposure after repeat oral administration in GLP toxicology study, rats. It counts as in vivo. From the text: (§1) There were no marked sex-based differences in exposure, but in the 28-day toxicity study of compound (1-g) in rats, exposures were 1.4 to 1.9-fold higher in female rats compared to males.
The nature of data set [2]: Exposure after repeat oral administration in GLP toxicology study, dogs. Type of data set: in vivo.
Text: as §1

Data set [3] has as its system CYP2B6. The experiment in a line: CYP2B6 induction in vitro (activity, mRNA). It counts as in vitro ADME.
The conditions of data set [4]: rat, in vivo, po.
The target of data set [5] is T1, CYP2B6 (Homo sapiens, UniProt P20813).
T1 sequence (P20813 1-491): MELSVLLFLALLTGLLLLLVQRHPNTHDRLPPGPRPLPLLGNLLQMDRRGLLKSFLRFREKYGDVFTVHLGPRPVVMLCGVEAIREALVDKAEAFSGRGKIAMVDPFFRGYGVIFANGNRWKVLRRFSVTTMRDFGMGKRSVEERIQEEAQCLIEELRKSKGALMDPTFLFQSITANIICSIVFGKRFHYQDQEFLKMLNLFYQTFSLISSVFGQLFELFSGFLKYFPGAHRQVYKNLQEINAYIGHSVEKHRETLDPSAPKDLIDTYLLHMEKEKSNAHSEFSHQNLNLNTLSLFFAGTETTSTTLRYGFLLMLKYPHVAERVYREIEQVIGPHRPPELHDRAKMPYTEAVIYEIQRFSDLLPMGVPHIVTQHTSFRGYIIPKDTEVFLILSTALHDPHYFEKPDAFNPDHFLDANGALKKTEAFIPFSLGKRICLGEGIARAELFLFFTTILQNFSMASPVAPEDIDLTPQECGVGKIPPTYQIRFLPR

The next data set concerns the target CYP2C9 (Homo sapiens, UniProt P11712).
A further data set in a line: in vivo. Conditions: female, rat, po.
The subject of another data set is CYP3A. The experiment in a line: in vitro. The settings on record: human.

What is called AUC is the area under the concentration-time curve, a measure of exposure. As a reminder, the inhibition is the share of the control response that was lost under treatment.

Chain of CYP2C9 (P11712 whole entry): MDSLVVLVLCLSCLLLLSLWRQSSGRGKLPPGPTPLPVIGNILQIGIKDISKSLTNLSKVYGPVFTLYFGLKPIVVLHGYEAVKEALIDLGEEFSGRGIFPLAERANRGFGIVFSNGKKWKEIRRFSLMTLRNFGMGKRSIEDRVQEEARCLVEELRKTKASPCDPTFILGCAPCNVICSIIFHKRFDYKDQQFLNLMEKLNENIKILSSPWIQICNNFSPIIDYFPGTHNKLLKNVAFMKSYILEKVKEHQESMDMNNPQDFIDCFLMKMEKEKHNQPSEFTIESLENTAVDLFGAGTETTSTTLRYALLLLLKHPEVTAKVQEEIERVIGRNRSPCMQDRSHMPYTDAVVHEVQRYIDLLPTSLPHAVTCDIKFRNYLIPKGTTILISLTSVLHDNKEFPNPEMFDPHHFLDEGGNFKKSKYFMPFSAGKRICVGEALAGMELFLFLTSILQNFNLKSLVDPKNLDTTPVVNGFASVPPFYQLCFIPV

With `O=C1CC[C@H](N2Cc3cc(N4CCN(CC5CCN(c6ccc([C@@H]7c8ccc(O)cc8OC[C@@H]7c7ccccc7)cc6F)CC5)CC4)ccc3C2=O)C(=O)N1` [compound (1-g), (S)-3-(5-(4-((1-(2-fluoro-4-((3S,4R)-7-hydroxy-3-phenylchroman-4-yl)phenyl)piperidin-4-yl)methyl)piperazin-1-yl)-1-oxoisoindolin-2-yl)piperidine-2,6-dione], the “accumulation with repeated dosing” value in data set [1] and in [2] was “No significant accumulation” each time. For the same compound, the “exposure (AUC0-24h) versus dose” value in [1] (repeat oral administration) and in data set [2] (repeat oral administration) was “increased in an approximately dose-dependent manner” in each case. The “change of exposure following repeat dosing” value in [2] (45 mg/kg/day) was “decreased in females and slightly decreased in males”. Also, in data set [2] (5 to 45 mg/kg/day, repeat administration), the “dose proportionality of exposure” value was “slightly less than dose proportional”. In addition, the “CYP2B6 induction (activity or mRNA expression)” value with CYP2B6 [3] was “did not significantly induce activity or mRNA expression”. In addition, in data set [4], the “presence in mammary gland tissue, ovaries and uterus” value is listed as “quantifiable in mammary gland tissue”. Also, in data set [4], the tissue exposure entry is “highest exposures were observed in the large and small intestine with limited exposure to the brain”. Also, the CYP2B6 time-dependent inhibition result at CYP2B6 [5] was “without showing time-dependent inhibition”. The CYP2C9 time-dependent inhibition result on CYP2C9 is recorded as “without showing time-dependent inhibition”. Besides, the “highest non-severely-toxic dose (HNSTD)” value (both, dog, in vivo, po, 28 day) is reported as 45 mg/kg/day. The off-target adverse toxicities entry (dog, in vivo) was “no off-target adverse toxicities observed”. Moreover, the key organ effects result (dogs, 28-day GLP) is “considered on target pharmacological effects”. Also, the exposure (AUC) in “in vivo” (AUC in the evaluated tissues (compared with plasma)) is greater than 2800 ng·h/mL; in the data set “in vivo” (plasma AUC), 2800 ng·h/mL. The same compound displayed an inhibition at 10 µM in the data set on CYP3A of 31.3%.

Source of the values: patent US20250381179A1, “CHROMAN-BASED COMPOUNDS FOR TREATING CANCER” (priority 2024, published 2025).
